Data set [1] is described as follows: Metabolic stability, human hepatocytes. In kind it is in vitro ADME.
A further data set has as its system Wnt/β‐catenin pathway. Put plainly: TOPflash reporter assay. As to conditions: MC3T3E1 cells, 2 days. In kind it is cell-based, murine. As to the method: Figure 3 Effect of KY‐02061 on Wnt/β‐catenin pathway, osteoblast differentiation, and ex vivo‐cultured calvaria growth • A MC3T3E1 cells were transfected with pTOPFLASH together with pCMV‐β‐gal. After 24 h, the cells were treated with DMSO, KY‐02061 in DMSO, or 5 μM PolyR‐DBM for 2 days. The luciferase activities of whole‐cell lysates were measured and normalized with β‐galactosidase activities. (n = 3) • B Primary calvaria cells were isolated from the calvariae of 4‐day‐old mice (Manton et al, 2007) and treated with DMSO or KY‐02061 in DMSO for 4 days. ALP activity levels were visualized by ALP staining. • C Primary calvaria cells were treated with DMSO or 5 μM KY‐02061 in DMSO for 14 days. […] The calvaria thicknesses were measured from the stained sections using Image Pro software (E). […] (error bars), and significance was assessed using unpaired Student's t‐test.
Figure 5 Effects of KY‐02327 on Wnt/β‐catenin pathway and osteoblast differentiation in osteoblasts • A MC3T3E1 cells were transfected with pTOPFLASH together with pCMV‐β‐gal. […] The luciferase activities of whole‐cell lysates were measured and normalized with β‐galactosidase activities. (n = 3) • B, C MC3T3E1 cells were treated with indicated concentrations of KY‐02327 for 2 days. β‐Catenin and α‐tubulin were detected by immunoblot (B) or immunofluorescence (C) analyses. […] The mRNA level of osteocalcin (OCN) was measured by qRT–PCR. […]
In general terms: In a reporter assay the amount or activity of a reporter protein is the signal.

For a further data set, the target named is T1, Dvl PDZ domain (Homo sapiens, UniProt O14640).
T1 construct: plasmid DNA encoding Dvl-1247- 341 (the Dvl PDZ domain); His-tag (TEV-cleavable) (cleaved yes); made in house; host or cells: E. coli BL21 (DE3)
T1 sequence (O14640 247-341 limits assumed): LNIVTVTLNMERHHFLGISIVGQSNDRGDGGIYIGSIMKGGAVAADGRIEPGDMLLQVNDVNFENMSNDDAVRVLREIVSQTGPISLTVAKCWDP
Put plainly: NMR titration (1H-15N-HSQC). In kind it is binding. As to the method:
For NMR titration, ^1H‐^15N‐heteronuclear single‐quantum coherence spectroscopy (HSQC) was performed using various molar ratios of ^15N‐labeled Dvl PDZ domain relative to the DBM peptide, KY‐02061, or KY‐02327. For the Dvl PDZ domain and DBM titration, the molar ratios of ^15N‐labeled Dvl PDZ domain to peptide ligand were 1:5, 1:10, 1:15, 1:20, and 1:25. For the Dvl PDZ domain and KY‐02061 titration, the molar ratios were 1:10, 1:20, 1:40, 1:60, and 1:80. For the Dvl PDZ domain and KY‐02327 titration, the molar ratios were 1:0, 1:5, 1:10, and 1:20. All spectra were processed using XWINNMR (Bruker Biospin Corp., Billerica, MA) and NMRpipe/NMRDraw software (Delaglio et al, 1995). Using the Sparky program, all residues in each spectrum were completely assigned, and the chemical shift perturbations were calculated using the equation ΔδAV = ((Δδ1H)^2 + (Δδ15N/5)^2)^1/2, where ΔδAV, Δδ1H, and Δδ15N are the average, proton, and ^15N chemical shift changes, respectively. The residues showing ΔδAV > 0.05 were selected as residues participating in the interaction.
Dvl PDZ domain purification
E. coli strain BL21 (DE3) was transformed with plasmid DNA encoding Dvl-1247-341 (the Dvl PDZ domain), and the cells were grown in M9 minimal medium containing 15N isotope for 17 hours at 21°C and after then 1 mM isopropyl-1-thio-β -D-thiogalactopyranoside was treated. […]

For data set [2], the target named is CYP C29 (so in the source); probably CYP2C9) (Homo sapiens, UniProt P11712). Put plainly: Cytochrome P450 inhibition assay, C29. Particulars: probe fluorogenic P450 substrates. From the text:
Appendix Table S4. Cytochrome P450 (CYP) inhibition assay with 10 µ M KY-

Sequence of CYP C29 (so in the source); probably CYP2C9) (P11712 whole entry): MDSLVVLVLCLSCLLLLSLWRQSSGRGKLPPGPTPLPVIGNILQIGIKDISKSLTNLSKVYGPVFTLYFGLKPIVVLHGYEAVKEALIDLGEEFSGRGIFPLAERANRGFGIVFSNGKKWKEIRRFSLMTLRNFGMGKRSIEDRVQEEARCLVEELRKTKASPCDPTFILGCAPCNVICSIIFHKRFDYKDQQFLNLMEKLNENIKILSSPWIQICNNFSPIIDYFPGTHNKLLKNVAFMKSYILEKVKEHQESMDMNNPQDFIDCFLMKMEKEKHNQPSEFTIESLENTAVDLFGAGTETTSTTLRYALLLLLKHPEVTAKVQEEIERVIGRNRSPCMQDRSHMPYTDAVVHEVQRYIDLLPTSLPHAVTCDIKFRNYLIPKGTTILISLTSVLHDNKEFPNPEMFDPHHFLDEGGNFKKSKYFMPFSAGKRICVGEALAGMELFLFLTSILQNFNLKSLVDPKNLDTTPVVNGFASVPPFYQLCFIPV

The term inhibition denotes the relative decrease from the control value, in per cent. Lower therefore signals a response near the control. With `CCOC(=O)c1cc2cc(O)ccc2n1CC(=O)NCCN1CCCCC1` [KY‐02327], the “stability, fold more stable than KY‐02061” value in data set [1] stood at 1.3 fold. Moreover, the “activation of the Wnt/β‐catenin pathway (TOPflash luciferase)” value with Wnt/β‐catenin pathway was “dose‐dependent effect”. The “residues of Dvl PDZ domain perturbed (chemical shift change > 0.05)” value on Dvl PDZ domain was “one residue in βA (I250) and three residues in αB (V318, R322, and V325) of Dvl PDZ were perturbed”. In data set [2], this compound registered an inhibition at 10 µM of 0%.

For the compound `CCOC(=O)Cn1c(C(=O)OCC)cc2cc(OS(=O)(=O)c3ccc(C)cc3)ccc21` [KY‐02061], in data set [1], the “Metabolic Stability (%) Human” value was determined as 25.2 ± 3% and the “metabolic stability (in words)” value was “poor metabolic stability”. Moreover, in the data set with Wnt/β‐catenin pathway, the “activation of the Wnt/β‐catenin pathway (TOPflash luciferase)” value is “increased”. Also, the “residues of Dvl PDZ domain perturbed (chemical shift change > 0.05)” value at Dvl PDZ domain was “one residue in βB (S265) and three residues in αB (L321, R322, and V325) were perturbed”.
